In one series the target is T1, 5-HT3 receptors (Rattus norvegicus, UniProt P35563).
T1 construct: from tissue; host or cells: rat cortex and hippocampus
T1 sequence (P35563 24-483): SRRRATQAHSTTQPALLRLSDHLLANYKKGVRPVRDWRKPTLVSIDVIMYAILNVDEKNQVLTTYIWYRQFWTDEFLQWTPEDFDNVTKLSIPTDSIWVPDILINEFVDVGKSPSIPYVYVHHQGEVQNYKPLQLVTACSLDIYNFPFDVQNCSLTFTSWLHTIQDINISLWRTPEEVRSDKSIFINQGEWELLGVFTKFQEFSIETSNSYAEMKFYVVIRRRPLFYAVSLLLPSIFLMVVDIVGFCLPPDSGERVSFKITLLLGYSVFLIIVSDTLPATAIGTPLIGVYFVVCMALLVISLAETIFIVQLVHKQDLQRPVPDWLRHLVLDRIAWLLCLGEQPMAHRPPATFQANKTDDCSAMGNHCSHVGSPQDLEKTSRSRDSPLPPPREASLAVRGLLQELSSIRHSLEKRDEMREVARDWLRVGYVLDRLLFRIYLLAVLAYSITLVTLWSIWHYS
Description: Affinity for the 5-HT3 receptors, [3H]-BRL43694 (Granisetron) binding. As for the experimental part:
a) Affinity for the 5-HT3 Receptors
The method of Nelson et al. (Biochem. Pharmacol. 1989, 38, 1693-95) was followed with slight modifications. Rat cortex and hippocampus were used to produce a pellet having a final concentration of 20 mg of tissue/sample. Specific activity of the tracer: 81 Ci/mmole; incubation time: 30 min; incubation temperature: 25° C.

In a further series the target is T2, 5-HT1A receptors (Rattus norvegicus, UniProt P19327).
T2 construct: from tissue; host or cells: rat hippocampus
T2 sequence (P19327 1-422): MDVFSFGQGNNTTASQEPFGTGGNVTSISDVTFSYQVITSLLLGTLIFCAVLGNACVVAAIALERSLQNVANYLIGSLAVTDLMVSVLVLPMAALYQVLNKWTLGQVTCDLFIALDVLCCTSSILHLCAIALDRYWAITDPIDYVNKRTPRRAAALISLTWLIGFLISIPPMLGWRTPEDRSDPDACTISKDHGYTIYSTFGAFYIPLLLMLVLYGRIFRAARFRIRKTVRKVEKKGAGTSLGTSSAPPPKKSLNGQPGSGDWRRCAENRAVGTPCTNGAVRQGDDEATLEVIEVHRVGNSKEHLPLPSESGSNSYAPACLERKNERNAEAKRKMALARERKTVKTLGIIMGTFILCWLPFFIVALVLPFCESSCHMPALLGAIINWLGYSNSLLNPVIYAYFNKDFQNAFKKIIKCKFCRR
Description: Affinity for the 5-HT1A receptors, [3H]-8-OH DPAT binding. The following applies: for Ki ± SE, 5-HT1A Subtype ([3H]-8OH-DPAT): rat hippocampus, 10 min, 37° C., IN (10^−6M) where no Ki is given. As to the method: d) Affinity for the 5-HT1A Receptors
The method of Hall et al (J. Neurochem. 1985, 44, 1685-1696) was followed with slight modifications. Rat hippocampus was used to produce a pellet having a final concentration of 4 mg of tissue/sample. Specific activity of the tracer: 137 Ci/mmole; incubation time 10 min; incubation temperature: 37° C.

The next series deals with T3, 5-HT2A Subtype (Rattus norvegicus, UniProt P14842).
T3 construct: from tissue; host or cells: rat prefrontal cortex
Description: Affinity for the 5HT2 receptors, [3H]-ketanserine binding. The following applies: for Ki: read-out: Ki ± SE, 5-HT2A Subtype ([3R]-ketanserine). As for the experimental part: c) Affinity for the 5HT2 Receptors
The method of Leysen et al (Mol. Pharmacol. 1982, 21, 301-314) was followed with slight modifications. Rat prefrontal cortex was used to produce a pellet having a final concentration of 8 mg of tisssue/sample. Specific activity of the tracer: 80.9 Ci/mmole; incubation time: 20 min; incubation temperature: 37° C.

Another series concerns the target T4, serotonin uptake site (Rattus norvegicus, UniProt P31652).
T4 construct: from tissue; host or cells: entire rat brain
Description: Affinity for the serotonin uptake site, [3H]-paroxetine binding. As for the experimental part:
The method of Plenge et al (Eur. J. Pharmacol., 1990, 189, 129-134) was followed with slight modifications. The entire rat brain was used to produce a pellet having a final concentration of 2 mg of tissue/sample. Specific activity of the tracer: 29.7 Ci/mmole; incubation time: 60 min.; incubation temperature: 25° C.

Setting [1] is: rat prefrontal cortex, 20 min, 37° C., IN (10^−6M) where no Ki is given.
Setting [2] is: entire rat brain, 60 min, 25° C., read-out: Ki ± SE, 5-HT Uptake ([3H]-paroxetin).

Each structure is given as a SMILES string. Like-named read-outs stand apart in the source and are kept apart here.

T4 sequence (P31652 whole entry): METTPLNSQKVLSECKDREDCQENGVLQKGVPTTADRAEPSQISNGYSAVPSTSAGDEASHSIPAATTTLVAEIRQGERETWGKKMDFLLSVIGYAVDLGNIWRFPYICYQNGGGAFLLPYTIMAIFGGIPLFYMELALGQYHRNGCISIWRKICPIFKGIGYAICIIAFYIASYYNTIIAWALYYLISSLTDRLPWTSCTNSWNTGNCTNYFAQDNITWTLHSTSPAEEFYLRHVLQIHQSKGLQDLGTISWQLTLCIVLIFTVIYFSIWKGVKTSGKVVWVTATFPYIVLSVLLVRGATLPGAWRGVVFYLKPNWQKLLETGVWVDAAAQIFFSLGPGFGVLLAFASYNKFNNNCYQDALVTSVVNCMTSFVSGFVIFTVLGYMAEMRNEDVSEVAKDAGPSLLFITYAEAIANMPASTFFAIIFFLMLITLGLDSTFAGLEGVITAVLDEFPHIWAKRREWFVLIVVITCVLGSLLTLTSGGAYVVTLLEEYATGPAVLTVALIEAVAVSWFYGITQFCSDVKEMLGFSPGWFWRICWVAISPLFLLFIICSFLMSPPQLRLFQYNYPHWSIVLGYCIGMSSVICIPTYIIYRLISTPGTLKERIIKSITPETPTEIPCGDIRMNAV
T3 sequence (P14842 whole entry): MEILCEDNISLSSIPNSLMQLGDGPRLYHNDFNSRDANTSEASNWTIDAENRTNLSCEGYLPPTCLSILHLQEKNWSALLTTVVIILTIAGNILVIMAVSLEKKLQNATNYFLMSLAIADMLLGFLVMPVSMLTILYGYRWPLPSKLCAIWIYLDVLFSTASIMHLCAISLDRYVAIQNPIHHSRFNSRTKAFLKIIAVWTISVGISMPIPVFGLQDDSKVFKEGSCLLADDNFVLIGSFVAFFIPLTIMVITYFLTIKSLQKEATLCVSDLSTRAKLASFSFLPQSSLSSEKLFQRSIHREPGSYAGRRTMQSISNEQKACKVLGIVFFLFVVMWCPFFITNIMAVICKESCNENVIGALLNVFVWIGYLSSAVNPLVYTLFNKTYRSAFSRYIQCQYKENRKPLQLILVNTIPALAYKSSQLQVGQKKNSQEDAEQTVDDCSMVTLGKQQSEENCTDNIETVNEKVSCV

For the compound `O=C1c2c(cnc3ccccc23)CN1C1CN2CCC1CC2` (racemic) [Compound 9, (R,S)-2-[1-azadicyclo[2.2.2]oct-3-yl]-2,3-dihydro-1H-pyrrolo[3,4-c]quinolin-1-one], the Ki (in general, the dissociation constant of the complex between target and ligand, obtained from inhibition or displacement) was 0.0016 ± 0.0006 µM at 5-HT3 receptors and 0.124 ± 0.022 µM on serotonin uptake site (setting [2]). Besides, the “Ki ± SE, 5-HT1A Subtype ([3H]-8OH-DPAT)” value at 5-HT1A receptors is given as “IN (10^−6M)”. Also, at 5-HT2A Subtype (setting [1]), the “Ki ± SE, 5-HT2A Subtype ([3R]-ketanserine)” value (from here on “Ki ± SE, 5-HT2A Subtype”) was “IN (10^−6M)”.

On to `CN1[C@@H]2CC[C@H]1C[C@@H](N1Cc3c(O)nc4ccccc4c3C1=O)C2` [Compound 5, endo-2-[8-methyl-8-azadicyclo[3.2.1]oct-3-yl]-2,3-dihydro-4-hydroxy-1H-pyrrolo[3,4-c]quinolin-1-one], for which the melting point (as a rule, the temperature, or range, at which the solid turns liquid) was 245 to 246 °C. In addition, at 5-HT3 receptors, the Ki is 0.0009 ± 6e-05 µM. The “Ki ± SE, 5-HT1A Subtype ([3H]-8OH-DPAT)” value at 5-HT1A receptors is listed as “IN (10^−6M)”. The “Ki ± SE, 5-HT2A Subtype” value at 5-HT2A Subtype (setting [1]) is “IN (10^−6M)”. In addition, the Ki at serotonin uptake site (setting [2]) amounted to 0.485 ± 0.037 µM.

Regarding `c1ccc2nc(N3CCNCC3)ccc2c1` [quipazine, reference compound], the Ki at 5-HT2A Subtype (setting [1]) is 1.81 ± 0.476 µM; on serotonin uptake site (setting [2]), 0.0313 ± 0.0029 µM.

Compound `O=C1c2c(ccc3ccccc23)CN1[C@H]1CN2CCC1CC2` [Compound 8, (R)-2-[1-azadicyclo[2.2.2]oct-3-yl]-2,3-dihydro-1H-benz[e]isoindol-1-one] returned a melting point of 155 to 157 °C. In addition, at 5-HT3 receptors, the affinity corresponds to a Ki of 0.0018 ± 0.0005 µM.

As to `O=[N+]([O-])c1ccc2nc(N3CCNCC3)ccc2c1` [6-NO2-quipazine, reference compound], on serotonin uptake site (setting [2]), the Ki was found to be 0.00012 ± 1e-05 µM.

`CCCOc1nc2ccccc2c2c1CN(C1CC3CCC(C1)N3C)C2=O` (stereo not drawn) [Compound 4, endo-2-[8-methyl-8-azadicyclo[3.2.1]oct-3-yl]-2,3-dihydro-4-propoxy-1H-pyrrolo[3,4-c]quinolin-1-one]: the melting point fell in the range of 170 to 171 °C. Further, the Ki on 5-HT3 receptors stood at 0.0007 ± 0.0002 µM. Besides, on 5-HT1A receptors, the “Ki ± SE, 5-HT1A Subtype ([3H]-8OH-DPAT)” value was “IN (10^−6M)”. For the same compound, on 5-HT2A Subtype (setting [1]), the “Ki ± SE, 5-HT2A Subtype” value is “IN (10^−6M)”. Besides, the Ki at serotonin uptake site (setting [2]) was determined as 0.108 ± 0.015 µM.

`CN1[C@@H]2CC[C@H]1C[C@@H](N1Cc3c(Cl)nc4ccccc4c3C1=O)C2` [Compound 3, endo-2-[8-methyl-8-azadicyclo[3.2.1]oct-3-yl]-2,3-dihydro-4-chloro-1H-pyrrolo[3,4-c]quinolin-1-one] returned a melting point of 169 to 171 °C. At 5-HT3 receptors, the affinity corresponds to a Ki of 0.0026 ± 0.0004 µM. Besides, the “Ki ± SE, 5-HT1A Subtype ([3H]-8OH-DPAT)” value at 5-HT1A receptors was “IN (10^−6M)”. Also, the “Ki ± SE, 5-HT2A Subtype” value at 5-HT2A Subtype (setting [1]) was “IN (10^−6M)”. The Ki on serotonin uptake site (setting [2]) amounted to 0.175 ± 0.03 µM.

At 5-HT3 receptors, `CN1[C@@H]2CC[C@H]1C[C@H](N1Cc3ccc4ccccc4c3C1=O)C2` [Compound 10, reference compound] returned a Ki of 0.0855 ± 0.016 µM. For the same compound, at 5-HT3 receptors (relative to Compound 1), the “less active than Compound 1 at the 5HT3 receptor” value is reported as ~2 orders of logarithmic magnitude.

For the compound `CN1[C@@H]2CC[C@H]1C[C@@H](N1Cc3nc4ccccc4cc3C1=O)C2` [Compound 11, endo-2-[8-methyl-8-azadicyclo[3.2.1]oct-3-yl]-2,3-dihydro-1H-pyrrolo[3,4-b]quinolin-1-one, reference compound], at 5-HT3 receptors, the Ki is 0.087 ± 0.037 µM. Also, the “less active than Compound 2 at the 5HT3 receptor” value at 5-HT3 receptors (relative to Compound 2) is reported as “approximately 60 times”.

`CN1[C@@H]2CC[C@H]1C[C@@H](N1Cc3cnc4ccccc4c3C1=O)C2` [Compound 2, endo-2-[8-methyl-8-azadicyclo[3.2.1]oct-3-yl]-2,3-dihydro-1H-pyrrolo[3,4-c]quinolin-1-one]: the melting point is 153 to 154 °C. In addition, the affinity at 5-HT3 receptors corresponds to a Ki of 0.0013 ± 0.0002 µM. Also, the “Ki ± SE, 5-HT1A Subtype ([3H]-8OH-DPAT)” value on 5-HT1A receptors was “IN (10^−6M)”. The “Ki ± SE, 5-HT2A Subtype” value at 5-HT2A Subtype (setting [1]) is on record as “IN (10^−6M)”. Also, the Ki on serotonin uptake site (setting [2]) turned out to be 0.503 ± 0.086 µM.

The compound `O=C1c2c(ccc3ccccc23)CN1C1CN2CCC1CC2` (racemic) [Compound 6, (R,S)-2-[1-azadicyclo[2.2.2]oct-3-yl]-2,3-dihydro-1H-benz[e]isoindol-1-one] displayed a melting point of 153 to 154 °C. At 5-HT3 receptors, affinity was put at a Ki of 0.0007 ± 8e-05 µM. The “Ki ± SE, 5-HT1A Subtype ([3H]-8OH-DPAT)” value on 5-HT1A receptors was “IN (10^−6M)”. Besides, the Ki at 5-HT2A Subtype turned out to be 26.5 ± 8.7 µM. Moreover, the Ki at serotonin uptake site stood at 0.0958 ± 0.0096 µM.

Turning to `CN1[C@@H]2CC[C@H]1C[C@@H](N1Cc3ccc4ccccc4c3C1=O)C2` [Compound 1], the Ki at 5-HT3 receptors stood at 0.001 ± 0.0002 µM; on 5-HT1A receptors (read-out: Ki ± SE, 5-HT1A Subtype ([3H]-8OH-DPAT)) it was 30.6 ± 6.46 µM; at 5-HT2A Subtype it was 21.1 ± 2.3 µM; at serotonin uptake site (setting [2]), 0.632 ± 0.051 µM.

Compound `O=C1c2c(ccc3ccccc23)CN1[C@@H]1CN2CCC1CC2` [Compound 7, (S)-2-[1-azadicyclo[2.2.2]oct-3-yl]-2,3-dihydro-1H-benz[e]isoindol-1-one] showed a melting point of 152 to 154 °C. Further, at 5-HT3 receptors, the inhibitory constant (Ki) came to 0.0003 ± 9e-05 µM and the “affinity for the 5-HT3 receptor (in words)” value is listed as “sub-nanomolar”.

Values taken from US6413978B1, “Basic derivatives of benz[e] isoindol-1-ones and pyrrolo[3,4-c] quinolin-1-ones with 5-HT3-antagonistic activity, their preparation and their therapeutic use” (Rotta Research Laboratorium S.p.A., priority 1998, dated 2002).
